Test results as given in US6605628B1, “Method of using 5-(arysulfonyl)-, 5-(arylsulfanyl)-and 5-(arylsulfanyl)thiazolidine-2,4-diones for inhibition of farnesyl-protein transferase” (Wyeth Holdings Corporation, priority 2001, dated 2003).
One block for each compound: values may come before it.

Columns and labels:
FPTase [1] = biological target: T1, FPTase (Homo sapiens, UniProt P49354+P49356); test: in vitro FTase Inhibition Assay, K-Ras used as substrate for farnesylation; assay type: biochemical; settings: Table I
Procedure: (§1) Enzyme test procedure: FPTase inhibition in vitro assay was performed according to James, G. L., Brown, M. S., and Goldstein, J. L., Methods in Enzymology, 1995, 255, 38-46; and Garcia, M. A., et al., J. Biol. Chem., 1993, 268, 18415-18420.
(§2) Materials—Purified FPTase (Moomaw, J. F. and Casey, P. J., J. Biol. Chem., 1992, 267, 17438-17443), purified His6-Ras, inhibitor compounds at 10 mg/ml or 10 mM in 100% DMSO, ^3H-FPP (50,000 dpm/pmol) Amersham, TCA/SDS (6%/2%), TCA (6%), Glass fiber filters ([…]), vacuum manifold or 96 well filtration plates.
(§3) Methods—1. Dilute FPTase inhibitors from stock solutions to 2.5× in 2.5% DMSO, 10 mM DTT, 0.5% octyl-B-glucoside. 2. Solution #1 is added to FPTase reaction in a volume of […]. 3. Standard reaction mix, […], contains 50 mM Tris (7.5), 10 mM ZnCl2, 3 mM MgCl2, 20 mM KCl, 5 mM DTT, 0.2% octyl-B-glucoside, 1% DMSO, […] His6-Ras, 10 ng FPTase, and various concentrations of FPTase inhibitors. 4. Incubate for 30-90 min at 25° C. 5. Stop reactions with TCA/SDS (6%/2%), hold at 4° C. for 45-60 min. 6. Filter by manifold or 96 well plate, wash filter 3-5× with TCA (6%). 7. Add scintillant to filters, measure ^3H-FPP incorporation into Ras protein.
(§4) Analysis of Results—Percent inhibition by test compounds is determined by the following:
(§5) (cpm from precipitated Ras with test compounds)−(background cpm)×100=% inhibition.
(§6) (cpm from precipitated Ras without test compounds)−(background cpm)

[2] = tested on: K-ras dependent human colon carcinoma (LoVo); test: in vivo effects against K-ras dependent human colon carcinoma (LoVo); settings: for S/T = No. Survivors/No.Treated: Day +35 post tumor cell implantation
Text: […] For the compound of example 114, when tested against a K-ras dependent human colon carcinoma (LoVo), the following results were obtained (Table III):

FPTase [3] = biological target: T1, FPTase; test: in vitro FTase Inhibition Assay, H-Ras used as substrate for farnesylation; assay type: biochemical; settings: Table I, read-out: IC50 H-Ras*
Procedure: as §1, §2, §3, §4, §5, §6

[4] = 50 mg/kg per dose IP, BID days 1 through 20, control 0.5% Methocel 0.4% Tween 80
[5] = 75 mg/kg per dose IP, BID days 1 through 20, control 0.5% Methocel 0.4% Tween 80
[6] = 100 mg/kg per dose IP, once a day on days 1 through 20, control 0.5% Methocel 0.4% Tween 80
[7] = 100 mg/kg per dose PO, BID days 1 through 20, control 0.5% Methocel 0.4% Tween 80
[8] = 100 mg/kg per dose PO, BID days 1 through 20, control 20% BCD in 1.1N HCl
[9] = 75* mg/kg per dose IP, BID days 1 through 20, prepared in 2% Tween 80 in D5W, control 2% Tween in D5W
[10] = 1 mg/kg per dose IP, days 5, 9 and 13, control 0.5% Methocel 0.4% Tween 80

Compound: COc1ccc(S(=O)(=O)C2(CCCC#Cc3cc(Cl)ccc3Cl)SC(=O)NC2=O)cc1 (stereo not shown) [Example 114, 5-[5-(2,5-Dichloro-phenyl)pent-4-ynyl]-5-(4-methoxy-benzenesulfonyl)-thiazolidine-2,4-dione]
IC50 (FPTase [1]): 0.032 to 0.32 µM
% T/C, Day8 [2, 4]: 74%
% T/C, Day 15 [2, 4]: 47%
% T/C, Day 22 [2, 4]: 43%
% T/C, Day 29 [2, 4]: 59%
% T/C, Day 36 [2, 4]: 76%
Mean Tumor Weight, Day8 [2, 4]: 65 mg
Mean Tumor Weight, Day 15 [2, 4]: 146 mg
Mean Tumor Weight, Day 22 [2, 4]: 258 mg
Mean Tumor Weight, Day 29 [2, 4]: 445 mg
Mean Tumor Weight, Day 36 [2, 4]: 964 mg
S/T = No. Survivors/No.Treated [2, 4]: 5/10
% T/C, Day8 [2, 5]: 51%
% T/C, Day 15 [2, 5]: 36%
% T/C, Day 22 [2, 5]: 43%
% T/C, Day 29 [2, 5]: 67%
% T/C, Day 36 [2, 5]: 60%
Mean Tumor Weight, Day8 [2, 5]: 45 mg
Mean Tumor Weight, Day 15 [2, 5]: 110 mg
Mean Tumor Weight, Day 22 [2, 5]: 255 mg
Mean Tumor Weight, Day 29 [2, 5]: 504 mg
Mean Tumor Weight, Day 36 [2, 5]: 764 mg
S/T = No. Survivors/No.Treated [2, 5]: 8/10
% T/C, Day8 [2, 6]: 35%
% T/C, Day 15 [2, 6]: 41%
% T/C, Day 22 [2, 6]: 42%
% T/C, Day 29 [2, 6]: 46%
% T/C, Day 36 [2, 6]: 44%
Mean Tumor Weight, Day8 [2, 6]: 31 mg
Mean Tumor Weight, Day 15 [2, 6]: 125 mg
Mean Tumor Weight, Day 22 [2, 6]: 251 mg
Mean Tumor Weight, Day 29 [2, 6]: 341 mg
Mean Tumor Weight, Day 36 [2, 6]: 559 mg
S/T = No. Survivors/No.Treated [2, 6]: 9/10
% T/C, Day8 [2, 7]: 70%
% T/C, Day 15 [2, 7]: 77%
% T/C, Day 22 [2, 7]: 76%
% T/C, Day 29 [2, 7]: 81%
% T/C, Day 36 [2, 7]: 74%
Mean Tumor Weight, Day8 [2, 7]: 61 mg
Mean Tumor Weight, Day 15 [2, 7]: 238 mg
Mean Tumor Weight, Day 22 [2, 7]: 454 mg
Mean Tumor Weight, Day 29 [2, 7]: 608 mg
Mean Tumor Weight, Day 36 [2, 7]: 934 mg
S/T = No. Survivors/No.Treated [2, 7]: 10/10
% T/C, Day8 [2, 8]: 81%
% T/C, Day 15 [2, 8]: 95%
% T/C, Day 22 [2, 8]: 88%
% T/C, Day 29 [2, 8]: 128%
% T/C, Day 36 [2, 8]: 107%
Mean Tumor Weight, Day8 [2, 8]: 50 mg
Mean Tumor Weight, Day 15 [2, 8]: 138 mg
Mean Tumor Weight, Day 22 [2, 8]: 299 mg
Mean Tumor Weight, Day 29 [2, 8]: 641 mg
Mean Tumor Weight, Day 36 [2, 8]: 872 mg
S/T = No. Survivors/No.Treated [2, 8]: 9/10
% T/C, Day8 [2, 9]: 221%
% T/C, Day 15 [2, 9]: 150%
% T/C, Day 22 [2, 9]: 163%
% T/C, Day 29 [2, 9]: 167%
% T/C, Day 36 [2, 9]: 157%
Mean Tumor Weight, Day8 [2, 9]: 86 mg
Mean Tumor Weight, Day 15 [2, 9]: 182 mg
Mean Tumor Weight, Day 22 [2, 9]: 324 mg
Mean Tumor Weight, Day 29 [2, 9]: 478 mg
Mean Tumor Weight, Day 36 [2, 9]: 666 mg
S/T = No. Survivors/No.Treated [2, 9]: 10/10
IC50 (FPTase [3]): 0.013 to 0.032 µM

Compound: COc1ccc(S(=O)(=O)C2(CCCC#Cc3cc(NC(=O)OCc4ccccc4)ccc3C)SC(=O)N(C(=O)OCc3ccccc3)C2=O)cc1 (stereo not shown) [Example 226, Benzyl 5-[5-(5-{[(benzyloxy)carbonyl]-amino}-2-methylphenyl)pent-4-ynyl]-5-[(4-methoxyphenyl)sulfonyl]-2,4-dioxo-1,3-thiazolidine-3-carboxylate]
IC50 (FPTase [1]): 0.1 to 3.2 µM
IC50 (FPTase [3]): 0.03 to 0.05 µM

Compound: CCCCOC(=O)Nc1ccc(C)c(C#CCCCC2(S(=O)(=O)c3ccc(OC)cc3)SC(=O)N(C(=O)OCCCC)C2=O)c1 (stereo not shown) [Example 231, Butyl 5-(5-{5-[(butoxycarbonyl)amino]-2-methylphenyl}pent-4-ynyl)-5-[(4-methoxy-phenyl)sulfonyl]-2,4-dioxo-1,3-thiazolidine-3-carboxylate]
IC50 (FPTase [1]): 0.1 to 1 µM
IC50 (FPTase [3]): 0.01 to 0.021 µM

Compound: COc1ccc(S(=O)(=O)C2(CCCC#Cc3cc(NC(=O)OCC(C)C)ccc3C)SC(=O)N(C(=O)OCC(C)C)C2=O)cc1 (stereo not shown) [Example 232, Isobutyl 5-(5-{5-[(isobutoxycarbonyl)-amino]-2-methylphenyl}pent-4-ynyl)-5-[(4-methoxyphenyl)sulfonyl]-2,4-dioxo-1,3-thiazolidine-3-carboxylate]
IC50 (FPTase [1]): 0.04 to 0.64 µM
IC50 (FPTase [3]): 0.005 to 0.01 µM

Compound: CC[C@]1(O)C[C@H]2CN(CCc3c([nH]c4ccccc34)[C@@](C(=O)OC)(c3cc4c(cc3OC)N(C=O)[C@H]3[C@@](O)(C(=O)OC)[C@H](OC(C)=O)[C@]5(CC)C=CCN6CC[C@]43[C@@H]65)C2)C1 [Vincristine, reference compound]
% T/C, Day8 [2, 10]: 16%
% T/C, Day 15 [2, 10]: 8%
% T/C, Day 22 [2, 10]: 14%
% T/C, Day 29 [2, 10]: 19%
% T/C, Day 36 [2, 10]: 15%
Mean Tumor Weight, Day8 [2, 10]: 14 mg
Mean Tumor Weight, Day 15 [2, 10]: 24 mg
Mean Tumor Weight, Day 22 [2, 10]: 84 mg
Mean Tumor Weight, Day 29 [2, 10]: 139 mg
Mean Tumor Weight, Day 36 [2, 10]: 194 mg

Results, then the compound that gave them:

IC50 (FPTase [1]): 0.032 to 0.056 µM
IC50 (FPTase [3]): 0.005 to 0.01 µM
Compound: COc1ccc(S(=O)(=O)C2(CCCC#Cc3cc(NC(=O)OCC(C)C)ccc3C)SC(=O)NC2=O)cc1 (stereo not shown) [Example 182, (3-{5-(5-(4-Methoxybenzenesulfonyl)-2 ,4-dioxothiazolidin-5-yl]pent-1-ynyl}-4-methylphenyl)carbamic Acid Isobutyl]

IC50 (FPTase [1]): 1.2 µM
IC50 (FPTase [3]): 0.1 µM
Compound: COc1ccc(S(=O)(=O)C2(CCCC#Cc3cc(NC(=O)Nc4ccc(Cl)cc4)ccc3C)SC(=O)NC2=O)cc1 (stereo not shown) [Example 189, N-(4-Chlorophenyl)-N′-[3-(5-{5-[(4-methoxyphenyl)sulfonyl]-2,4-dioxo-1,3-thiazolidin-5-yl}-1-pentynyl)-4-methylphenyl]urea]

IC50 (FPTase [1]): 8.5 µM
IC50 (FPTase [3]): 0.1 µM
Compound: Cc1ccc(S(=O)(=O)C2(CCC/C=C\c3ccc(Cl)cc3)SC(=O)NC2=O)cc1 (stereo not shown) [Example 217, 5-[(4Z)-5-(4-Chloro-phenyl)pent-4-enyl]-5-(toluene-4-sulfonyl)-thiazolidine-2,4-dione]

IC50 (FPTase [1]): 3 µM
IC50 (FPTase [3]): 0.09 µM
Compound: COc1ccc(S(=O)(=O)C2(CCCC#Cc3cccc(N)c3)SC(=O)NC2=O)cc1 (stereo not shown) [Example 220, 5-[5-(3-Aminophenyl)pent-4-ynyl]-5-(4-methoxybenzenesulfonyl)-thiazolidine-2,4-dione]

IC50 (FPTase [1]): 0.21 to 0.4 µM
IC50 (FPTase [3]): 0.007 to 0.01 µM
Compound: COc1ccc(S(=O)(=O)C2(CCCC#Cc3cc(NC(=O)OCc4ccc([N+](=O)[O-])cc4)ccc3C)SC(=O)N(C(=O)OCc3ccc([N+](=O)[O-])cc3)C2=O)cc1 (stereo not shown) [Example 227, 4-Nitrobenzyl 5-[(4-methoxyphenyl)sulfonyl]-5-{5-[2-methyl-5-({[(4-nitrobenzyl)oxy]carbonyl}amino)phenyl]pent-4-ynyl}-2,4-dioxo-1,3-thiazolidine-3-carboxylate]

IC50 (FPTase [1]): 0.23 to 1 µM
IC50 (FPTase [3]): 0.004 to 0.07 µM
Compound: COC(=O)Nc1ccc(C)c(C#CCCCC2(S(=O)(=O)c3ccc(OC)cc3)SC(=O)N(C(=O)OC)C2=O)c1 (stereo not shown) [Example 228, Methyl 5-(5-{5-[(methoxycarbonyl)amino]-2-methylphenyl}pent-4-ynyl)-5-[(4-methoxyphenyl)sulfonyl]-2,4-dioxo-1,3-thiazolidine-3-carboxylate]

IC50 (FPTase [1]): 0.1 to 0.7 µM
IC50 (FPTase [3]): 0.006 to 0.02 µM
Compound: COc1ccc(S(=O)(=O)C2(CCCC#Cc3cc(NC(=O)OC(C)C)ccc3C)SC(=O)N(C(=O)OC(C)C)C2=O)cc1 (stereo not shown) [Example 229, Isopropyl 5-(5-{5-[(isopropoxycarbonyl)-amino]-2-methylphenyl}pent-4-ynyl)-5-[(4-methoxyphenyl)sulfonyl]-2,4-dioxo-1,3-thiazolidine-3-carboxylate]

IC50 (FPTase [1]): 0.02 to 0.5 µM
IC50 (FPTase [3]): 0.003 to 0.0035 µM
Compound: COc1ccc(S(=O)(=O)C2(CCCC#Cc3cc(NC(=O)OCC(C)(C)C)ccc3C)SC(=O)N(C(=O)OCC(C)(C)C)C2=O)cc1 (stereo not shown) [Example 230, Neopentyl 5-[(4-methoxyphenyl)sulfonyl]-5-[5-(2-methyl-5-{[(neopentyloxy)carbonyl]-amino}phenyl)pent-4-ynyl]-2,4-dioxo-1,3-thiazolidine-3-carboxylate]
